Experimental data taken from patent US8445501B2, “Substituted 7-carboxamido-pyrrolo[3,2-d]pyrimidines” (Takeda GmbH, priority 2008, dated 2013).

target: T1, human PDE5 (Homo sapiens, UniProt O76074); assay: Inhibition of the type 5 phosphodiesterase (PDE5) activity, modified SPA test with platelet lysate; assay type: biochemical; conditions: PDE5 from human platelet lysate, 0.5 μM cGMP
T1 construct: from tissue; host or cells: platelets from fresh blood of human donors (lysate, 10,000 g supernatant)
How it was run: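 Human platelet lysate (10,000 g supernatant) as PDE5 source in SPA with 0.5 μM cGMP plus [3H]cGMP tracer, pH 7.4, 5 mM Mg2+, 1 μM motapizone and 10 nM PDE2 inhibitor; 10–20% conversion. 5 min preincubation, 15 min at 37 °C, stopped with SPA beads/IBMX. IC50 by non-linear regression.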

Compound	IC50 [nM]	-log IC50 (mol/l)
CCOC(=O)N[C@H]1CC[C@@H](NC(=O)c2c[nH]c3c(-c4ccc(F)cc4OCC4CC4)ncnc23)CC1 [Example 77, cis-(4-{[4-(2-Cyclopropylmethoxy-4-fluoro-phenyl)-5H-pyrrolo[3,2-d]pyrimidine-7-carbonyl]-amino}-cyclohexyl)-carbamic acid ethyl ester]	2.14	
O=C(CO)N[C@H]1CC[C@H](NC(=O)c2c[nH]c3c(-c4ccccc4OCC4CC4)ncnc23)CC1 [Example 224, trans-4-(2-Cyclopropylmethoxy-phenyl)-5H-pyrrolo[3,2-d]pyrimidine-7-carboxylic acid [4-(2-hydroxy-acetylamino)-cyclohexyl]-amide]	6.92	
COc1ccc(OCC2CC2)c(-c2ncnc3c(C(=O)N[C@H]4CC[C@@H](NC(=O)C5CC5)CC4)c[nH]c23)c1 [Example 68, cis-4-(2-Cyclopropylmethoxy-5-methoxy-phenyl)-5H-pyrrolo[3,2-d]pyrimidine-7-carboxylic acid [4-(cyclopropanecarbonyl-amino)cyclohexyl]-amide]	0.912	
trans-4-(2-Cyclopropylmethoxy-4-fluoro-phenyl)-5H-pyrrolo[3,2-d]pyrimidine-7-carboxylic acid [4-((S)-2-hydroxy-propionylamino)-cyclohexyl]-amide [Example 223]		8.46
O=C(N[C@H]1CC[C@H](NC(=O)C2CC2)CC1)c1c[nH]c2c(-c3ccccc3OCC3CC3)ncnc12 [Example 93, trans-4-(2-Cyclopropylmethoxy-phenyl)-5H-pyrrolo[3,2-d]pyrimidine-7-carboxylic acid [4-(cyclopropanecarbonyl-amino)cyclohexyl]-amide]	2.51	
CCC(=O)N1CC[C@@H](NC(=O)c2c[nH]c3c(-c4cc(F)c(OC)cc4OCC4CC4)ncnc23)C1 [Example 118, 4-(2-Cyclopropylmethoxy-5-fluoro-4-methoxy-phenyl)-5H-pyrrolo[3,2-d]pyrimidine-7-carboxylic acid ((R)-1-propionyl-pyrrolidin-3-yl)-amide]	0.501	
O=C(NCC1CCN(C(=O)C2(O)CC2)CC1)c1c[nH]c2c(-c3c(OCC4CC4)ccc4c3OCO4)ncnc12 [Example 188, 4-(5-Cyclopropylmethoxy-benzo[1,3]dioxol-4-yl)-5H-pyrrolo[3,2-d]pyrimidine-7-carboxylic acid {1-[1-(1-hydroxy-cyclopropyl)-methanoyl]-piperidin-4-ylmethyl}-amide]	0.513	
COCCOc1cc(OC)ccc1-c1ncnc2c(C(=O)NC3CCN(C(=O)C4CC4)CC3)c[nH]c12 [Example 159, 4-[4-Methoxy-2-(2-methoxy-ethoxy)-phenyl]-5H-pyrrolo[3,2-d]pyrimidine-7-carboxylic acid (1-cyclopropanecarbonyl-piperidin-4-yl)-amide]	6.03	
C[C@H](O)C(=O)N1CCC(CNC(=O)c2c[nH]c3c(-c4c(OCC5CC5)ccc5c4OCO5)ncnc23)C1 (stereo partly drawn) [Example 192, 4-(5-Cyclopropylmethoxy-benzo[1,3]dioxol-4-yl)-5H-pyrrolo[3,2-d]pyrimidine-7-carboxylic acid [1-((S)-2-hydroxy-propionyl)pyrrolidin-3-ylmethyl]-amide]	0.832	
COCCOc1ccc2c(c1-c1ncnc3c(C(=O)N[C@H]4CC[C@H](NC(C)=O)CC4)c[nH]c13)OCO2 [Example 161, trans-4-[5-(2-Methoxy-ethoxy)-benzo[1,3]dioxol-4-yl]-5H-pyrrolo[3,2-d]pyrimidine-7-carboxylic acid (4-acetylamino-cyclohexyl)-amide]	5.25	
CCOC(=O)N1CCC(NC(=O)c2c[nH]c3c(-c4c(OCC)ccc5c4OCO5)ncnc23)CC1 [Example 134, 4-{[4-(5-Ethoxy-benzo[1,3]dioxol-4-yl)-5H-pyrrolo[3,2-d]pyrimidine-7-carbonyl]-amino}-piperidine-1-carboxylic acid ethyl ester]	0.347	
O=C(NCC1CCCN(C(=O)CO)C1)c1c[nH]c2c(-c3c(OCC4CC4)ccc4c3OCO4)ncnc12 (centres unmarked) [Example 189, 4-(5-Cyclopropylmethoxy-benzo[1,3]dioxol-4-yl)-5H-pyrrolo[3,2-d]pyrimidine-7-carboxylic acid [1-(2-hydroxy-acetyl)piperidin-3-ylmethyl]-amide]	0.389	

More lines, in order of falling IC50, values ahead:

IC50 [nM]	-log IC50 (mol/l)	Compound
0.339		CCOC(=O)N1CC[C@@H](NC(=O)c2c[nH]c3c(-c4c(OCC5CC5)ccc5c4OCO5)ncnc23)C1 [Example 17, (R)-3-({1-[4-(5-Cyclopropylmethoxy-benzo[1,3]dioxol-4-yl)-5H-pyrrolo[3,2-d]pyrimidin-7-yl]-methanoyl}-amino)-pyrrolidine-1-carboxylic acid ethyl ester]
0.282		O=CN1CCC(NC(=O)c2c[nH]c3c(-c4c(OCC5CC5)ccc5c4OCO5)ncnc23)CC1 [Example 43, 4-(5-Cyclopropylmethoxy-benzo[1,3]dioxol-4-yl)-5H-pyrrolo[3,2-d]pyrimidine-7-carboxylic acid (1-formyl-piperidin-4-yl)-amide]
0.263		COc1ccc(-c2ncnc3c(C(=O)NC4CCN(C(=O)C5CC5)CC4)c[nH]c23)c(OCC2CC2)c1 [Example 60, 4-(2-Cyclopropylmethoxy-4-methoxy-phenyl)-5H-pyrrolo[3,2-d]pyrimidine-7-carboxylic acid [1-(1-cyclopropyl-methanoyl)-piperidin-4-yl]-amide]
0.24		O=C(NCC1CCN(C(=O)C2CC2)CC1)c1c[nH]c2c(-c3c(OCC4CC4)ccc4c3OCO4)ncnc12 [Example 25, 4-(5-Cyclopropylmethoxy-benzo[1,3]dioxol-4-yl)-5H-pyrrolo[3,2-d]pyrimidine-7-carboxylic acid [1-(1-cyclopropyl-methanoyl)-piperidin-4-ylmethyl]-amide]
0.229		O=C(N[C@H]1CC[C@@H](NC(=O)C2(O)CC2)CC1)c1c[nH]c2c(-c3c(OCC4CC4)ccc4c3OCO4)ncnc12 [Example 178, cis-4-(5-Cyclopropylmethoxy-benzo[1,3]dioxol-4-yl)-5H-pyrrolo[3,2-d]pyrimidine-7-carboxylic acid {4-[(1-hydroxy-cyclopropanecarbonyl)-amino]-cyclohexyl}-amide]
0.224		O=C(N[C@H]1CC[C@@H](NC(=O)C2CC2)CC1)c1c[nH]c2c(-c3c(OCC4CC4)ccc4c3OCO4)ncnc12 [Example 8, cis-4-(5-Cyclopropylmethoxy-benzo[1,3]dioxol-4-yl)-5H-pyrrolo[3,2-d]pyrimidine-7-carboxylic acid {4-[(1-cyclopropyl-methanoyl)-amino]-cyclohexyl}-amide]
0.219		CC(=O)c1ccc(OCC2CC2)c(-c2ncnc3c(C(=O)NC4CCN(C(=O)[C@H](C)O)CC4)c[nH]c23)c1 [Example 264, 4-(5-Acetyl-2-cyclopropylmethoxy-phenyl)-5H-pyrrolo[3,2-d]pyrimidine-7-carboxylic acid [1-((S)-2-hydroxy-propanoyl)piperidin-4-yl]-amide]
0.209		COCC(=O)N[C@H]1CC[C@H](NC(=O)c2c[nH]c3c(-c4c(OCC5CCC5)ccc5c4OCO5)ncnc23)CC1 [Example 128, trans-4-(5-Cyclobutylmethoxy-benzo[1,3]dioxol-4-yl)-5H-pyrrolo[3,2-d]pyrimidine-7-carboxylic acid [4-(2-methoxy-ethanoylamino)-cyclohexyl]-amide]
